We go through one compound from patent US20260297136A1, “PEPTIDES WITH LIPOLYTIC, ANTI-LIPOGENIC, ANTIFIBROTIC AND ANTI-INFLAMMATORY ACTIVITY” (FUNDACIÓ HOSPITAL UNIVERSITARI VALL D'HEBRON - INSTITUT DE …, priority 2023, published 2026).

The test system of this assay is CCl4-induced fibrosis mouse model. Put plainly: Preventive effects in a CCl4-induced fibrosis mouse model, Example 5. The settings on record: 20 mg/kg/day sc, vs vehicle. In kind it is in vivo, C57BL6/J male mice. As to the method:
C57BL6/J male mice were purchased and kept for quarantine and acclimatization for a period of about 7 days before initiation of every experiment. Mice were housed in clean and sterilized mice cages and maintained in a controlled environment with 22+3° C. temperature, 50+20% humidity, a light/dark cycle of 12 hours each and 15-20 fresh air changes per hour.
Preventive effect of a daily subcutaneous injection of GP6 (20 mg/kg/day) in a mouse model of fibrosis induced by twice a week intraperitoneal injection of CCl4 (1 ml/Kg diluted in olive oil 1:5) during a 4 weeks period. A group of control mice (n=6) was treated with daily subcutaneous injections of vehicle (water) and the other group (n=10) with daily subcutaneous injection of GP6 (20 mg/kg/day) during 10 weeks.
At the end of the experiment mice were sacrificed, serum samples were extracted, tissues were weighted and part was fixed in paraformaldehyde for histology studies and part immediately frozen at −80 C for mRNA and protein expression studies.
The Histology studies, AST and ALT measurements as well the RNA analysis were performed as described in example 4.

Regarding `CC[C@@H](C)[C@@H](NC(=O)[C@H](NC(=O)CNC(=O)[C@@H](CCC(=O)O)NC(=O)[C@H]1CCCN1C(=O)[C@@H](CC(=O)O)NC(=O)[C@@H](Cc1c[nH]c2ccccc12)NC(=O)[C@H](NC(=O)[C@@H](CCCNC(=N)N)NC(=O)[C@H](NC(=O)[C@@H](CCC(=O)O)NC(=O)[C@@H](Cc1ccccc1)NC(=O)[C@@H](CO)NC(=O)[C@@H](CO)NC(=O)[C@@H](CO)NC(=O)[C@H](NC(=O)[C@@H](CCCCN)NC(=O)[C@H](N)[C@H](C)O)[C@H](C)O)C(C)C)[C@H](C)O)C(C)C)C(=O)N[C@H](Cc1ccccc1)C(=O)N[C@H](Cc1ccc(O)cc1)C(=O)O` [GP6], the liver weight result is “did not show any significance between groups”; the “reduction of ALT serum levels” value is about 50%; the “reduction of Collagen (Col1A1) expression in hepatic tissue” value is listed as “more than 50%”; the “reduction of hepatic fibrosis (picrosirius staining, ImageJ)” value is listed as “approximately 37%”. The “reduction of hepatic inflammation (F4/80 mRNA levels)” value is given as “more than 50%” and the “total body weight lost induced by CCl4” value was “mice treated with vehicle lost more body weight when compared with GP6 treated mice”.
